# Test: in vitro
# Details: human, hela cells, % viability
row,Structure (SMILES),"viability at 28.5 h, 10 µM [%]"
1,COc1ccccc1CN(CC(C)(C)CN)C(=O)Nc1ccc(C)c([N+](=O)[O-])c1 [CBK026816C],98.8
2,CC(C)(CN)CN(Cc1ccccc1C(F)(F)F)C(=O)Nc1c(F)cccc1F [CBK026822C],109
3,CC(C)(CN)CN(Cc1ccccc1C(F)(F)F)C(=O)Nc1ccc(C(C)(C)C)cc1 [CBK026828C],92.4
4,Cc1ccc(SCS(=O)(=O)c2ccc(C)cc2)cc1 [CBK026853],97.8
5,Clc1ccccc1CSc1nc[nH]n1 [CBK026950],98.5
6,CCCCSc1nnc(-c2ccc(Br)cc2)o1 [CBK027012],117
7,O=C(CSc1ncn(-c2ccccc2)n1)c1ccc(Br)cc1 [CBK027014],91.6
8,c1ccc2sc(-n3cncn3)nc2c1 [CBK027022],92.2
9,CCN(CC(=O)N1CCN(C(=O)c2ccc(C)cc2)CC1)C(=O)OC [CBK027051],82
10,CC(=O)Nc1cccc2c1NSN2 [CBK027082],92.1
11,CCCCNC(=O)NC1CCCC1 [CBK027084],101
12,CC(NC(=O)C1CC=CCC1C(=O)O)C1CC2CCC1C2 (stereo not shown) [CBK027112],114
13,COc1cccc(OCC(O)CN(C)S(=O)(=O)O)c1 (stereo not shown) [CBK027121N],89.9
14,CNCCc1ccccc1Sc1ccccc1 [CBK027155G],102
15,CCOC(=O)N1N=C(c2ccc(F)cc2)CC1(O)C(F)(F)F (stereo not shown) [CBK027156],111
16,CCCCCC1=NN(C(=O)c2ccccc2Br)C(O)(C(F)(F)F)C1 (stereo not shown) [CBK027223],104
17,C1=CC2CC1CC2CN1CCN(Cc2cccnc2)CC1 (stereo not shown) [CBK027284],100
18,COc1nc(NCCN2CCOCC2)nc(Nc2ccccc2)n1 [CBK027298],102
19,CC1=CC(C)C(C(=O)O)C(C(=O)N2CCN(C)CC2)C1 (stereo not shown) [CBK027311G],97.7
20,CC(=O)Nc1nnn(CCOc2nonc2C)n1 [CBK027320],90.2
21,COc1ccc(CN2CCOCC2)cc1Br [CBK027346],80.8
22,CCC1(C)CC(C(CCN)c2ccc(C)cc2)CCO1 (stereo not shown) [CBK027350],98.8
23,CCCCC1CCC(c2noc(-c3ccc(F)cc3)n2)CC1 (stereo not shown) [CBK027363],90.3
24,Cc1cc(Nc2ccc(I)cc2)n2ncnc2n1 [CBK027364],100
25,OCCN1CCN(CC(O)COCC2COc3ccccc3O2)CC1 (stereo not shown) [CBK027374C],97.3
26,Cn1c(=O)oc2cc(Br)ccc21 [CBK027375],108

row,Structure (SMILES),"viability at 28.5 h, 10 µM [%]"
1,Cc1cc(=O)n(C)c(=O)n1CCCCCN1CCCC1 [CBK027386],99.9
2,Cc1cc(C)n2c(SCC(=O)O)nnc2n1 [CBK027406],108
3,Clc1nc(NCCN2CCOCC2)nc(N2CCCCCC2)n1 [CBK027412],98.9
4,CC(C)Nc1nc(C#N)nc(NC(C)C)n1 [CBK027421],84.7
5,CCCCC1CCC(C(=O)Nc2ncccn2)CC1 (stereo not shown) [CBK027423],113
6,Clc1ccc(C2NCCS2)c(Cl)c1 (stereo not shown) [CBK027425],102
7,COC(=O)Nc1nc(Cl)cc(Cl)n1 [CBK027433],93.8
8,CN(C)CCCOC(=O)c1cccnc1Cl [CBK027436],111
9,Cn1c(=O)c(C(N)=O)c(O)c2ccccc21 [CBK027440],78.6
10,CCOc1ccc(CSC2=NCCN2)cc1Cl [CBK027449C],92.4
11,COc1nc(NCc2ccco2)nc(OC)n1 [CBK027479],86.4
12,CN(CCOC(=O)c1cccs1)C(C)(C)C [CBK027559C],88.6
13,O=C(Nc1ncccn1)C1CCCCC1 [CBK027567],98.3
14,O=C(NCCO)Nc1ccc2nccnc2c1 [CBK027577],71.5
15,CC1(C)CC(=O)C=C(NCC2CCNCC2)C1 [CBK027580],87.9
16,Cc1cc(=O)n(C)c(=O)n1CCCN1CCCCC1 [CBK027584],115
17,CCCCSc1nnc2nc(C)cc(C)n12 [CBK027588],98.2
18,Fc1ccc(-n2cnnn2)cc1 [CBK027592],110
19,O=C(Nn1cnnc1)c1ccccc1F [CBK027603],106
20,Cn1c(=O)c2[nH]c(N3CCCCC3)nc2n(C)c1=O [CBK027630],86.1
21,OCCCNCC(O)CN1c2ccccc2Sc2ccccc21 (stereo not shown) [CBK027632G],98.4
22,[O-][S+]1c2ccccc2Oc2ccccc21 [CBK027634],94.7
23,CCOC(=O)c1c(-n2cnnn2)sc(C)c1C [CBK027660],93.6
24,Clc1cccc(-n2cnnn2)c1Cl [CBK027665],77.7
25,CC(C)Nc1nc(Cl)nc(Nc2ccc(I)cc2)n1 [CBK027685],97.6
26,Nc1nonc1OCCCCOc1nonc1N [CBK027716],110

row,Structure (SMILES),"viability at 28.5 h, 10 µM [%]"
1,O=c1[nH]c(=O)c2c3c(sc2[nH]1)CCCC3 [CBK027724],67.6
2,CCOC(=O)c1[nH]c(=O)[nH]c1CSc1ccccn1 [CBK027725],94
3,Cc1nnc2nc(-c3ccc(Cl)cc3Cl)[nH]n12 [CBK027731],88.1
4,CC(C)Nc1nc(NC(C)C)nc(N(C)C(N)=O)n1 [CBK027732],90.2
5,CCNc1nc(C#N)nc(Nc2ccccc2)n1 [CBK027733],86.1
6,c1ccc(CSc2nc3ccccc3s2)nc1 [CBK027737],76.2
7,COC(=O)NC(O)C(=O)c1cccs1 (stereo not shown) [CBK027755],93.8
8,COC(=O)NC(O)C(=O)c1ccco1 (stereo not shown) [CBK027757],94.7
9,O=c1[nH]nc(SCc2ccccc2Cl)c(=S)[nH]1 [CBK027795],117
10,Cc1cc(=O)n2c(c1C#N)SCC2 [CBK027807],102
11,COCC(C)NCc1ccccc1C (stereo not shown) [CBK027852],115
12,CNCc1cc(Br)ccc1OC [CBK027857],113
13,O=C(c1cc[nH]n1)N1CCOCC1 [CBK027868],89.2
14,CCOc1cc(/C=N/Nc2nncn2N)cc(I)c1O [CBK027879],93.6
15,COC(=O)N/N=C(\C)c1ccc(Br)s1 [CBK027886],103
16,COc1ccc(CCC(=O)Nc2nnc[nH]2)cc1 [CBK027896],101
17,COc1ccc(-c2nc(=S)c3c(n2CCCO)CCCC3)cc1 [CBK027898],88.7
18,Cc1nc2ccccc2c(O)c1CN1CCN(C)CC1 [CBK027922],119
19,NC(=O)c1c(NC(=O)Cn2cnc([N+](=O)[O-])n2)sc2c1CCCC2 [CBK027935],98.6
20,O=C(Nc1nn[nH]n1)C1CCCCC1 [CBK027955],112
21,O=c1nc(O)c2ccccc2s1 [CBK027968],94.9
22,CCOc1ccc(/C=C2\SC(=O)NC2=S)cc1 [CBK027996],90.9
23,CCCc1nnc(SCC(=O)Nc2cccc(C(F)(F)F)c2)n1N [CBK028004],104
24,CC(C)C(c1nnnn1Cc1ccccc1)N1CCOCC1 (stereo not shown) [CBK028054],117
25,Cc1ccc(S(=O)(=O)N(CCC#N)CCN2CCCC2)cc1 [CBK028055],119
26,COc1cccc(CCNCC(O)COc2ncnc3ccccc23)c1 (stereo not shown) [CBK028127T],93.1

row,Structure (SMILES),"viability at 28.5 h, 10 µM [%]"
1,COc1ccc([C@@]23CCC(NC(=S)NCc4ccccc4)C[C@@H]2N(Cc2ccccc2)CC3)cc1 (stereo partly shown) [CBK028140],88
2,C#CCn1nnc2ccccc21 [CBK028164],104
3,O=S1(=O)NC=Nc2ccccc21 [CBK028171],112
4,O=C(NC(=S)Nn1cnnc1)c1ccccc1 [CBK028188],125
5,FC(F)(F)c1nc2ccccc2[nH]1 [CBK028224],84.5
6,C[S+]([O-])c1nc2ccccc2s1 (stereo not shown) [CBK028233],93.5
7,O=C(Nc1cccc(N2CCNCC2)c1)c1ccccc1 [CBK028255T],114
8,O=C(CCCOc1ccccc1)Nc1cccnc1N1CCNCC1 [CBK028258T],97.3
9,O=C(CCS(=O)(=O)c1ccccc1)Nc1cccnc1N1CCNCC1 [CBK028262T],103
10,CN(CC(=O)Nc1cccnc1N1CCNCC1)C(=O)c1ccccc1 [CBK028264T],95.8
11,O=C(Nc1ccc(N2CCNCC2)nc1)C1(c2ccccc2)CCCCC1 [CBK028269T],97.8
12,O=C(CCCOc1ccccc1)Nc1ccc(N2CCNCC2)nc1 [CBK028270T],98.2
13,O=C(COc1ccccc1)Nc1cccc(N2CCNCC2)c1 [CBK028271T],100
14,COc1ccc(CCCC(=O)Nc2ccc(N3CCNCC3)nc2)cc1OC [CBK028272T],82.4
15,O=C(Nc1ccc(N2CCNCC2)nc1)c1ccccc1 [CBK028277T],114
16,O=C(CCC(=O)c1ccccc1)Nc1ccccc1N1CCNCC1 [CBK028284T],92.9
17,CN(CC(=O)Nc1ccccc1N1CCNCC1)C(=O)c1ccccc1 [CBK028287T],99.3
18,O=C(NCc1ccccc1OC1CCNC1)c1ccccc1 (stereo not shown) [CBK028301T],114
19,C[C@H]1CC[C@H](C(=O)N2CCC[C@H]2C(=O)O)CC1 [CBK028320],81.9
20,Cc1ccc2c(c1)CCCN2C(=O)c1csc2c(C(F)(F)F)cc(N3CCOCC3)nc12 [CBK028367],116
21,COc1ccc(CCCC(=O)Nc2cc3ccccc3c(N3CCNCC3)n2)cc1OC [CBK028417T],90.3
22,O=C(CCC(=O)c1ccccc1)Nc1cc2ccccc2c(N2CCNCC2)n1 [CBK028418T],106
23,O=C(CCS(=O)(=O)c1ccccc1)Nc1cc2ccccc2c(N2CCNCC2)n1 [CBK028419T],88.1
24,O=C(Nc1cc2ccccc2c(N2CCNCC2)n1)c1ccccc1 [CBK028423T],104
25,COc1ccc(CCCC(=O)NCc2ccc(OC3CCNCC3)cc2)cc1OC [CBK028428T],94.9

# — publication PMC12040169 (PLOS Biology, 2025)
